Data from patent US20080031922A1, “Delivery System” (priority 2004, published 2008).
Where “and” joins values, the source holds several entries; their conditions need not be identical. Equal entries are not always repeated. Each block holds one molecule with its values, some of them ahead of it.

Tests used:
Format in all cases: physicochemical
[1] = in vitro release rate of FAP from intrauterine system (IUS)
Procedure: The release rate of the therapeutically active substance from the device was measured in vitro as follows:
The devices (implant, intravaginal ring, intracervical or intrauterine system) were attached into a stainless steel holder in vertical position and the holders with the devices were placed into glass bottles containing 75 ml of a dissolution medium, a 1 wt-% hydroxypropyl cyclodextrin solution. The glass bottles were shaked in shaking waterbath 100 rpm at 37° C. The dissolution medium was withdrawn and replaced by a fresh dissolution medium at predetermined time intervals, and the amount of the released substance was analysed by using standard HPLC methods. The concentration of the dissolution medium and the moment of change (withdrawal and replacement) of medium were selected, so that sink-conditions were maintained during the test.
HPBCD modification was tested with a fluorinated antiprogestin derivative (FAP, 11-(4-Acetylphenyl)-17-hydroxy-17-(1,1,2,2,2-pentafluoroethyl)estra-4,9-dien-3-one) in intrauterine (IUS) system. Two samples of 1 and 4 wt-% of HPBCD content in the membrane were prepared by combining with swelling separately extruded membrane and core elastomer rods over the IUS T-frame. The swelling agent was isopropanol.
The content of the therapeutically active agent in the core elastomer was 65 wt-% and the outer diameter of the core was 2.88-2.92 mm and length 21.0-21.1 mm. The membrane was 3 mm longer than the core and the thickness of the membrane was 0,25 mm. FIG. 3 presents the release rate of the therapeutically active agent (μg/d, shown in the y-axis) from two FAP containing intrauterine systems as a function of time (days, shown in the x-axis) compared to a reference sample. Indeed, the squares represent the results for the reference sample, the losanges illustrate the results for the cyclodextrin modified membrane, when the amount of cyclodextrin was 1 wt-% and the triangles represent the results for the cyclodextrin modified membrane, when the amount of cyclodextrin was 4 wt-%.

[2] = in vitro release rate of danazol from intravaginal ring (IVR)
Procedure: The release rate of the therapeutically active substance from the device was measured in vitro as follows: The devices (implant, intravaginal ring, intracervical or intrauterine system) were attached into a stainless steel holder in vertical position and the holders with the devices were placed into glass bottles containing 75 ml of a dissolution medium, a 1 wt-% hydroxypropyl cyclodextrin solution. The glass bottles were shaked in shaking waterbath 100 rpm at 37° C. The dissolution medium was withdrawn and replaced by a fresh dissolution medium at predetermined time intervals, and the amount of the released substance was analysed by using standard HPLC methods. The concentration of the dissolution medium and the moment of change (withdrawal and replacement) of medium were selected, so that sink-conditions were maintained during the test. […] Hydroxypropyl β-cyclodextrin (HPBCD) was used as the regulating agent. Three different implants with different hydroxypropyl β-cyclodextrin (HPBCD) contents in the membrane were made and the results were compared to corresponding implants without any added HPBCD. All the implants consisted of a core containing the therapeutically active agent and a release rate-controlling membrane encasing the core. The core and the membrane silicone elastomer rods were manufactured by extrusion and the implant compositions were made by swelling the membrane in propanol, as explained above. The content of the therapeutically active agent was 20 wt-% (weight percent) in the core and the micronized hormone was mixed into the elastomer with a mixer before extrusion. The diameters of the IVR rings were ca. 50-55 mm and the periphery of the cross section ca. 9-10 mm, the thicknesses of the membranes were 0.25, 0.35 and 0.7 mm and the HPBCD contents of the membrane were 0.17 wt-%, 1.7 wt-% and 7.7 wt-% respectively. The results are shown in FIG. 1 for the daily in vitro release rate per core area (μg/(d*mm^2), shown as the y axis and days shown in the x-axis), wherein the empty triangles represent the results for 0.17 wt-% HPBCD-content in the membrane with 0.7 mm wall thickness. The empty squares illustrate the results for 1.7 wt-% HPBCD-content in the membrane with 0.35 mm wall thickness and the stars show the results for 7.7 wt-% HPBCD-content in the membrane with 0.25 mm wall thickness. The full triangles represent the comparative results for a membrane with wall thickness of 0.3 mm and the full squares illustrate the comparative results for a membrane with wall thickness of 0.9 mm.

[3] = in vitro release rate of gestodene from implant
Procedure: The release rate of the therapeutically active substance from the device was measured in vitro as follows: The devices (implant, intravaginal ring, intracervical or intrauterine system) were attached into a stainless steel holder in vertical position and the holders with the devices were placed into glass bottles containing 75 ml of a dissolution medium, a 1 wt-% hydroxypropyl cyclodextrin solution. The glass bottles were shaked in shaking waterbath 100 rpm at 37° C. The dissolution medium was withdrawn and replaced by a fresh dissolution medium at predetermined time intervals, and the amount of the released substance was analysed by using standard HPLC methods. The concentration of the dissolution medium and the moment of change (withdrawal and replacement) of medium were selected, so that sink-conditions were maintained during the test. The present invention was also tested with an implant containing gestodene, a synthetic progestogene hormone. The implant core and membrane rods were made with extrusion and the implant composition was made by swelling the membrane in propanol. The outer diameter of the implant core was 2.5-3.0 mm and the length 40-48 mm. The content of the therapeutically active agent in the core was 65 wt-%. The membrane thickness was 0.25 mm, inner diameter 2.35-2.65 mm, outer diameter was 3.0-3.25 mm and length 10 mm longer than the elastomer core. The HPBCD content of the implant membrane was 4 wt-%. The membrane was made of PEO-b-PDMS (15 wt-%) and PDMS (85 wt-%). The results are shown in FIG. 2 as the release rate of the therapeutically active agent (μg/d, shown in y-axis) versus time (days, shown in x-axis), wherein the squares represent the results for the Reference 1, the losanges represent the results for an implant having a HPBCD-containing membrane and the triangles illustrate the results for Reference 2. Reference 1 comprises a core having an outer diameter of 2.5 mm and a length of 40 mm, and a membrane, the thickness of which is 0.25 mm. The implant having a membrane containing 1 wt-% HPBCD has a core with an outer diameter of 3.03 mm and a length of 44 mm, and the membrane wall of 0.25 mm. Reference 2 comprises a core having an outer diameter of 2.8 mm, a length of 48 mm and the membrane with a wall of 0.25 mm.

- burst effect ([1]; amount of cyclodextrin in membrane 1 wt-%): still some burst effect remaining
- level of the release rate ([1]; amount of cyclodextrin in the membrane 4 wt-% (vs 1 wt-%)): higher
- release rate profile compared to reference sample ([1]; both cyclodextrin modified samples (1 and 4 wt-%)): higher
- initial burst ([1]; both cyclodextrin-modified membranes (1 and 4 wt-% HPBCD) vs reference sample, FIG. 3): decreased
- shape of the curve of the release rate after two days ([1]; reference and modified samples compared): similar
SMILES: CC(=O)c1ccc(C2C[C@@]3(C)[C@@H](CCC3(O)C(F)(F)C(F)(F)F)[C@@H]3CCC4=CC(=O)CCC4=C23)cc1 (stereo partly drawn) [FAP, 11-(4-Acetylphenyl)-17-hydroxy-17-(1,1,2,2,2-pentafluoroethyl)estra-4,9-dien-3-one]

- release rate when HPBCD is added into the membrane ([2]; HPBCD modified IVR vs reference samples): seems to be higher
- release rate trend over time ([2]; HPBCD modified IVR, first two weeks, up to the zenith point): slightly increasing trend
- release rate compared to ordinary ring with 0.9 mm wall ([2]; IVR with 0.17 w-% HPBCD content and 0.7 mm membrane wall, two and half week release): stays equal
- initial burst without the modification relative to that found for modified samples ([2]; IVR without HPBCD (membrane wall 0.3 and 0.9 mm) vs HPBCD modified samples, FIG. 1): five to ten times
- initial burst without the modification relative to the release rate in two weeks dissolution ([2]; IVR without HPBCD (membrane wall 0.3 and 0.9 mm), FIG. 1): three to five times
- initial burst effect ([2]; IVR, all HPBCD modified samples (0.17, 1.7, 7.7 wt-% HPBCD in membrane; wall 0.7, 0.35, 0.25 mm), 1 wt-% hydroxypropyl cyclodextrin medium, 37° C, FIG. 1): negative initial burst effect
SMILES: C#C[C@]1(O)CC[C@H]2[C@@H]3CCC4=Cc5oncc5C[C@]4(C)[C@H]3CC[C@@]21C [danazol, (17alpha)-pregna-2,4-dien-20-yn[2,3-d]isoxazol-17-ol]

- total decrease of release in 14 days ([3]; both reference samples (implants without HPBCD in membrane), FIG. 2): 30%
- total decrease of the gestodene release from the second to the third week ([3]; implant with cyclodextrin (HPBCD) modified membrane): 0.5%
- maximum decrease of release in two weeks ([3]; implant with cyclodextrin (HPBCD) modified membrane, FIG. 2): ca. 6%
- decrease of the gestodene release from the second to the third week ([3]; reference samples (implants without HPBCD in membrane)): 8.4% and 11%
SMILES: C#C[C@]1(O)C=C[C@H]2[C@@H]3CCC4=CC(=O)CC[C@@H]4[C@H]3CC[C@@]21CC [gestodene]
